5 compounds from patent publication US10668168B2, “Method for removing weakly bound functional moieties from cell targeting conjugates” (priority 2015, dated 2020) can be followed below.

Structures are written as SMILES.

The subject of the assay is NBD-4Py-Lx-trastuzumab conjugate. Briefly: Stripping efficiency of S- and N-donors: released NBD label from trastuzumab conjugate. The format is physicochemical. The conditions noted are these: agent 10 mM final, 37 °C, 30 minutes stripping. As for the experimental part: The percentage of released NBD label (excitation and emission wavelength of 485 nm and 535 nm, respectively) was determined spectrophotometrically. The conjugation mixture was precipitated with 2 volume equivalents acetonitrile followed by centrifugation of the formed suspension (5 minutes, 14K rpm). By measuring the fluorescence of the supernatant, the percentage of released NBD label was determined.
NBD-4Py-Lx-Cl (133 microliters, 5 mM in 20 mM NaCl, 20 equiv.) was added to a solution of trastuzumab, used in its commercial formulation, (238 microliters, 21 mg/ml) and HEPES buffer (12.3 microliters, pH 7.47, 20 mM final concentration). The mixture was placed in a THERMOMIXER® at 37° C. for 4 hours, followed by purification using a prewashed PD10 column which was eluted with 0.9% NaCl. The purified conjugate was incubated with PBS or the S and N-donors as listed above (10 mM final concentration) in a THERMOMIXER® at 37° C. for 30 minutes. With size exclusion chromatography conjugation was clearly observed. Furthermore no aggregation was observed. The NBD/mAb ratio of all the conjugates were between 4.0 and 4.2.
The percentage of the released NBD label was determined as described in Example B.
For `N[C@@H](Cc1c[nH]cn1)C(=O)O` [Histidine], the “Released label (%)” value is given as 5.9%.

As to `N#C[S-].[K+]` [KSCN, potassium thiocyanate], the “Released label (%)” value came to 35.9%.

As for `N[C@@H](CS)C(=O)O` [L-cysteine], the “Released label (%)” value is 36.4%.

As for `CSCC[C@H](NC(C)=O)C(=O)O` [N-acetyl-1-methionine], the “Released label (%)” value is recorded as 12.2%.

As for `O=S([O-])([O-])=S.[Na+].[Na+]` [NaSTS, sodium thiosulfate], the “Released label (%)” value worked out at 52.4%.
